Experimental data from patent US12187703B2, “Crystalline forms of N-(3-(2-(2-hydroxyethoxy)-6-morpholinopyridin-4-yl)-4-methvlphenyl)-2 (trifluoromethyl)isonicotinamide as Raf inhibitors for the treatment of cancer” (NOVARTIS AG, priority 2019, dated 2025).
In brackets after ≈: the same amount, converted by molar mass. Read-outs that look alike come from different tables or passages of the source.

What was measured:
Format in all cases: physicochemical
[1] = Hygroscopicity, storage and solubility conclusions; settings: for Hygroscopicity: non-hygroscopic defined as water uptake at most 2 w-%, 0 to 95% RH, 25° C. (GMS/DVS)
Text: The term “non-hygroscopic” as used herein refers to a compound showing a water uptake of at most 2 w-% in the sorption cycle when measured with GMS (or DVS) at a relative humidity in the range of from 0 to 95% RH and a temperature of (25.0±0.1) ° C., based on the weight of the compound. Non-hygroscopic is preferably up to 0.2%.

[2] = Water activity experiments of Form A
Procedure: About 100 mg of Form A is equilibrated with 0.5 mL solvent by stirring at RT or 50° C. The slurries are filtered. The wet cake is investigated by XRPD.

[3] = Behaviour under compression, grinding and granulation with water
[4] = Bulk density and flowability with ring shear tester; settings: listed as Modification A
Procedure: (§1) Pilot manufacture batches producing Modification HA and Form A on kilogram scale were compared for their respective bulk powder properties. The particle size distribution (PSD) was determined according to the corresponding method for release. Other measurements were performed using technical methods known in the art or as described herein.

[5] = Particle size distribution by Fraunhofer light diffraction; settings: pilot manufacture batch, kilogram scale; listed as Modification A
Procedure: as §1
A few drops of the dispersing aid were added to an appropriate amount of test substance. The mixture was mixed intensively, e.g. on a vortex mixer, in order to wet the substance thoroughly and to form a smooth and homogeneous paste. The resultant paste was diluted with the dispersion liquid to a final volume of 3-6 ml and the dispersion mixed again. The cumulative volume distribution was determined using a laser light diffraction instrument as stated above. The parameters could be adjusted accordingly so that the test dispersion is representative, homogeneous and well dispersed.
Particle sizes were determined at the undersize values of 10%, 50% and 90% (×10, ×50, ×90), and additional values in question, from the cumulative volume distribution.

[6] = Solubility at 25° C., 24 hours slurry; settings: for Final pH: 25° C.; for solubility at 24 h: 25 °C, thermodynamic from solid, read-out: Solubility at 25° C.
Procedure: A sample was weighed in a glass vial and solvent added to make a slurry followed by stirring or shaking at 25° C. for 24 hours. The amount of sample and solvents depends on the target concentration, e.g. if the target concentration is 10 mg/mL, the weight of the sample should be 10 mg and the amount of solvent volume should be 1 mL. The solid and liquid are separated by centrifugation at 13000 rpm for 2 minutes with 0.2 μm membrane. The filtrate is then used for the solubility test after appropriate dilution. The diluent is from the UPLC method. The solids obtained after equilibration were analyzed by XRPD after being dried at 40° C. under vacuum for 2 hours. DSC/TGA analysis was conducted for selected samples.

[7] = Stability testing, solid state bulk (UPLC, color, XRPD, TGA); set-up: key: A: No change of color; B: Slight discoloration
Procedure: (§2) X-ray powder diffraction (XRPD) analysis of all polymorph forms was performed using a Bruker D8 Discover x-ray diffractometer with XYZ stage. Measurements were taken at about 40 kV and 1 mA under the following conditions:
(§3) Crystalline Monohydrate Form HA was analysed by thermogravimetric analysis (TGA) using a Discovery Thermogravimetric Analysis Calorimeter from TA instruments under the following conditions (see Table 6).
(§4) No notable change in chemical purity, nor change in XRPD, nor change in TGA, was observed.

[8] = as above
Procedure: as §2, §3, §4

[9] = as above; set-up: key: A: No change of color; settings: Solid state
Procedure: as §2, §3, §4

[10] = 50° C., water 0%/IPA 100%, aw 0.000
[11] = 50° C., water 1%/IPA 99%, aw 0.124
[12] = 50° C., water 3.2%/IPA 96.8%, aw 0.324
[13] = 50° C., water 100%/IPA 0%, aw 1.000
[14] = RT, water 0%/IPA 100%, aw 0.000
[15] = RT, water 100%/IPA 0%, aw 1.000
[16] = Solid state, 1 week 80° C./75% r.h.
[17] = Xenon light (approx. 1200 kLuxh)
[18] = Solid state, 1 week 50° C., closed container
[19] = Solid state, 1 week 50° C./75% r.h.
[20] = Solid state, 1 week 80° C., closed container

Cc1ccc(NC(=O)c2ccnc(C(F)(F)F)c2)cc1-c1cc(OCCO)nc(N2CCOCC2)c1 [Form A, N-(3-(2-(2-hydroxyethoxy)-6-morpholinopyridin-4-yl)-4-methylphenyl)-2-(trifluoromethyl)isonicotinamide]
Relative solubility of forms [1]: more soluble than Form HA
Solubility, overall rating [1]: adequate solubility
Stability when stored in bulk quantities [1]: stable when stored in bulk quantities
Hygroscopicity [1]: non-hygroscopic
After 1 d equilibration (wet cake XRPD) [2, 10]: Form A
After 5 d equilibration (wet cake XRPD) [2, 10]: Form A
After 1 d equilibration (wet cake XRPD) [2, 11]: Form A
After 5 d equilibration (wet cake XRPD) [2, 11]: Form A
After 1 d equilibration (wet cake XRPD) [2, 12]: Form A
After 5 d equilibration (wet cake XRPD) [2, 12]: Form A
After 1 d equilibration (wet cake XRPD) [2, 13]: Form A
After 5 d equilibration (wet cake XRPD) [2, 13]: Form A
After 1 d equilibration (wet cake XRPD) [2, 14]: Form A
After 5 d equilibration (wet cake XRPD) [2, 14]: Form A
After 1 d equilibration (wet cake XRPD) ([2]; RT, water 1%/IPA 99%, aw 0.120): Form A
After 5 d equilibration (wet cake XRPD) ([2]; RT, water 1%/IPA 99%, aw 0.120): Form A
After 1 d equilibration (wet cake XRPD) ([2]; RT, water 3.2%/IPA 96.8%, aw 0.316): Form A + HA
After 1 d equilibration (wet cake XRPD) [2, 15]: Form A
After 5 d equilibration (wet cake XRPD) [2, 15]: Form A
Time for complete conversion of Form A to Monohydrate HA ([2]; water activity of 0.3, room temperature): 5 days
Physical form upon granulation with water or compression [3]: remains unchanged
Crystallinity when compressed ([3]; pressures of 3 to 6 MPa): slight decrease in crystallinity
Bulk flowability with ring shear tester, rating in words ([4]; under 1250 Pa normal stress): “very cohesive”
Technical measurement of bulk flowability with ring shear tester ([4]; under 1250 Pa normal stress): 1.45
Technical measurement of bulk density with ring shear tester ([4]; under no consolidation stress): 71 kg/m^3
Diameter X of PSD measured during release, X50 [5]: X50: 8 μm
Diameter X of PSD measured during release, X90 [5]: X90: 44 μm
Solubility at 25° C. ([6]; 0.01N HCl, pH 2.0): 0.0014 mg/mL (≈ 2.79 µM)
Final pH ([6]; 0.01N HCl, pH 2.0): 2.16
Solubility at 25° C. ([6]; 0.1N HCl, pH 1.0): 0.2929 mg/mL (≈ 583 µM)
Final pH ([6]; 0.1N HCl, pH 1.0): 1.07
Final pH ([6]; Acetate buffer, pH 4.7): 4.82
Final pH ([6]; Borate buffer, pH 9.0): 9.01
solubility at 24 h ([6]; FaSSIF, pH 6.5, fassif, FaSSIF, pH 6.5): 0.0008 mg/mL (≈ 1.59 µM)
Final pH ([6]; FaSSIF, pH 6.5): 6.45
Solubility at 25° C. ([6]; FeSSIF, pH 5.8): 0.0413 mg/mL (≈ 82.2 µM)
Final pH ([6]; FeSSIF, pH 5.8): 5.82
solubility at 24 h ([6]; N,N-dimethylformamide, organic solvent or mixture, N,N-Dimethylformamide): > 10 mg/mL
Final pH ([6]; Phosphate buffer, pH 6.8): 6.74
Solubility at 25° C. ([6]; SGF, pH 2.0): 0.0220 mg/mL (≈ 43.8 µM)
Final pH ([6]; SGF, pH 2.0): 2.05
Final pH ([6]; Water): 8.93
solubility at 24 h ([6]; acetate buffer, pH 4.7, aqueous buffer, Acetate buffer, pH 4.7): < 0.0003 mg/mL
solubility at 24 h ([6]; acetonitrile, organic solvent or mixture, Acetonitrile): > 10 mg/mL
solubility at 24 h ([6]; borate buffer, pH 9, aqueous buffer, Borate buffer, pH 9.0): < 0.0003 mg/mL
solubility at 24 h ([6]; dichloromethane, organic solvent or mixture, Dichloromethane): > 10 mg/mL
solubility at 24 h ([6]; ethanol, organic solvent or mixture, Ethanol): > 10 mg/mL
solubility at 24 h ([6]; ethyl acetate, organic solvent or mixture, Ethyl acetate): > 10 mg/mL
solubility at 24 h ([6]; phosphate buffer, pH 6.8, aqueous buffer, Phosphate buffer, pH 6.8): < 0.0003 mg/mL
solubility at 24 h ([6]; water, water, Water): < 0.0003 mg/mL

Cc1ccc(NC(=O)c2ccnc(C(F)(F)F)c2)cc1-c1cc(OCCO)nc(N2CCOCC2)c1 [Form B, N-(3-(2-(2-hydroxyethoxy)-6-morpholinopyridin-4-yl)-4-methylphenyl)-2-(trifluoromethyl)isonicotinamide]
Relative solubility of forms [1]: more soluble than Form A
Solubility, overall rating [1]: adequate solubility
Stability when stored in bulk quantities [1]: stable when stored in bulk quantities
Hygroscopicity [1]: non-hygroscopic
Color (CL) [7, 16]: B
Color (CL) [7, 17]: B
XRPD pattern upon grinding, compression and granulation with water [3]: did not change
Bulk (XRPD) [8, 18]: no change
DP %, Bulk (UPLC) [8, 18]: 2.46%
Bulk (XRPD) [8, 19]: no change
DP %, Bulk (UPLC) [8, 19]: 2.49%
Bulk (XRPD) [8, 20]: no change
DP %, Bulk (UPLC) [8, 20]: 2.12%
Bulk (XRPD) [8, 16]: changed
DP %, Bulk (UPLC) [8, 16]: 3.32%
Bulk (XRPD) [8, 17]: no change
DP %, Bulk (HPLC) [8, 17]: 3.66%
Stability upon exposure to elevated temperature or humidity ([8]; degradation products and physical form): relatively stable
Solubility at 25° C. ([6]; 0.01N HCl, pH 2.0): 0.1412 mg/mL (≈ 281 µM)
Final pH ([6]; 0.01N HCl, pH 2.0): 2.04
Solubility at 25° C. ([6]; 0.1N HCl, pH 1.0): 1.0264 mg/mL (≈ 2040 µM)
Final pH ([6]; 0.1N HCl, pH 1.0): 1.02
Solubility at 25° C. ([6]; Acetate buffer, pH 4.7): < 0.0002 mg/mL
Final pH ([6]; Acetate buffer, pH 4.7): 4.78
Solubility at 25° C. ([6]; Acetonitrile): >10 mg/mL
Solubility at 25° C. ([6]; Borate buffer, pH 9.0): < 0.0002 mg/mL
Final pH ([6]; Borate buffer, pH 9.0): 8.97
Solubility at 25° C. ([6]; Dichloromethane): >10 mg/mL
Solubility at 25° C. ([6]; Ethanol): >10 mg/mL
Solubility at 25° C. ([6]; Ethyl acetate): >10 mg/mL
Solubility at 25° C. ([6]; FaSSIF, pH 6.5): 0.0014 mg/mL (≈ 2.79 µM)
Final pH ([6]; FaSSIF, pH 6.5): 6.91
Solubility at 25° C. ([6]; FeSSIF, pH 5.8): 0.1370 mg/mL (≈ 273 µM)
Final pH ([6]; FeSSIF, pH 5.8): 6.08
Solubility at 25° C. ([6]; N,N-Dimethylformamide): >10 mg/mL
Solubility at 25° C. ([6]; Phosphate buffer, pH 6.8): < 0.0002 mg/mL
Final pH ([6]; Phosphate buffer, pH 6.8): 6.75
Solubility at 25° C. ([6]; SGF, pH 2.0): 0.0021 mg/mL (≈ 4.18 µM)
Final pH ([6]; SGF, pH 2.0): 2.02
Solubility at 25° C. ([6]; Water): < 0.0002 mg/mL
Final pH ([6]; Water): 8.11
solubility at 24 h ([6]; heptane, organic solvent or mixture, Heptane): < 0.0002 mg/mL
Color (CL) ([9]; 1 week 50° C., closed container): A
Color (CL) ([9]; 1 week 50° C./75% r.h.): A
Color (CL) ([9]; 1 week 80° C., closed container): A
